Measured values taken from PubChem BioAssay (NCI).
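Results reflect a 48-hour exposure of cells in 96-well plates to compound at five concentrations. Abbreviation: GI50, concentration required for 50% inhibition of growth. TGI marks complete inhibition of growth.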

Experiments:
Test in all cases: NCI-60 cell line screen, 48 h
M14 melanoma = system: M14 melanoma
MALME-3M melanoma = system: MALME-3M melanoma
A498 renal = system: A498 renal
SK-MEL-28 melanoma = system: SK-MEL-28 melanoma
HOP-92 NSCLC = system: HOP-92 NSCLC
SW-620 colon = system: SW-620 colon
SR leukemia = system: SR leukemia
PC-3 prostate = system: PC-3 prostate
HCT-15 colon = system: HCT-15 colon
OVCAR-8 ovarian = system: OVCAR-8 ovarian
BT-549 breast = system: BT-549 breast
SK-MEL-5 melanoma = system: SK-MEL-5 melanoma
T-47D breast = system: T-47D breast
IGROV1 ovarian = system: IGROV1 ovarian
KM12 colon = system: KM12 colon
MDA-MB-435 = system: MDA-MB-435
OVCAR-3 ovarian = system: OVCAR-3 ovarian
SF-268 CNS = system: SF-268 CNS
UO-31 renal = system: UO-31 renal
MCF7 breast = system: MCF7 breast
HT29 colon = system: HT29 colon
HL-60(TB) leukemia = system: HL-60(TB) leukemia
COLO 205 colon = system: COLO 205 colon
HS 578T breast = system: HS 578T breast
HCC-2998 colon = system: HCC-2998 colon
K-562 leukemia = system: K-562 leukemia
MOLT-4 leukemia = system: MOLT-4 leukemia
DU-145 prostate = system: DU-145 prostate
UACC-62 melanoma = system: UACC-62 melanoma

Structure (SMILES): Cc1nc(Sc2nc3ccc([N+](=O)[O-])cc3s2)sc1C
- TGI (M14 melanoma): 4.14 µM
- GI50 (MALME-3M melanoma): 1.4 µM
- TGI (MALME-3M melanoma): 3.9 µM
- GI50 (A498 renal): 1.59 µM
- TGI (A498 renal): 9.23 µM
- GI50 (SK-MEL-28 melanoma): 1.77 µM
- TGI (SK-MEL-28 melanoma): 4.76 µM
- GI50 (HOP-92 NSCLC): 2.54 µM
- TGI (HOP-92 NSCLC): 7.55 µM
- GI50 (SW-620 colon): 0.482 µM
- TGI (SW-620 colon): 3.53 µM
- GI50 (SR leukemia): 0.367 µM
- TGI (SR leukemia): 5.94 µM
- GI50 (PC-3 prostate): 1.15 µM
- TGI (PC-3 prostate): 7.63 µM
- GI50 (HCT-15 colon): 0.731 µM
- TGI (HCT-15 colon): 3.51 µM
- GI50 (OVCAR-8 ovarian): 1.79 µM
- TGI (OVCAR-8 ovarian): 7.12 µM
- GI50 (BT-549 breast): 0.989 µM
- TGI (BT-549 breast): 2.85 µM
- GI50 (SK-MEL-5 melanoma): 1.67 µM
- TGI (SK-MEL-5 melanoma): 4.58 µM
- GI50 (T-47D breast): 1.32 µM
- TGI (T-47D breast): 6.17 µM
- GI50 (IGROV1 ovarian): 3 µM
- TGI (IGROV1 ovarian): 14.8 µM
- GI50 (KM12 colon): 3.89 µM
- TGI (KM12 colon): 14.6 µM
- GI50 (MDA-MB-435): 1.78 µM
- TGI (MDA-MB-435): 11.1 µM
- GI50 (OVCAR-3 ovarian): 1.35 µM
- TGI (OVCAR-3 ovarian): 3.28 µM
- GI50 (SF-268 CNS): 1.7 µM
- TGI (SF-268 CNS): 10.9 µM
- GI50 (UO-31 renal): 1.49 µM
- TGI (UO-31 renal): 4.17 µM
- GI50 (MCF7 breast): 0.705 µM
- TGI (MCF7 breast): 10.1 µM
- GI50 (HT29 colon): 1.64 µM
- TGI (HT29 colon): 4.23 µM
- GI50 (HL-60(TB) leukemia): 1.68 µM
- TGI (HL-60(TB) leukemia): 4.6 µM
- GI50 (COLO 205 colon): 1.93 µM
- TGI (COLO 205 colon): 6.07 µM
- GI50 (HS 578T breast): 3.03 µM
- TGI (HS 578T breast): 16.4 µM
- GI50 (HCC-2998 colon): 12.5 µM
- TGI (HCC-2998 colon): 25.2 µM
- GI50 (K-562 leukemia): 0.429 µM
- TGI (K-562 leukemia): 8.97 µM
- GI50 (MOLT-4 leukemia): 0.288 µM
- TGI (MOLT-4 leukemia): 3.45 µM
- GI50 (DU-145 prostate): 3.99 µM
- TGI (DU-145 prostate): 15.4 µM
- GI50 (UACC-62 melanoma): 1.22 µM
- TGI (UACC-62 melanoma): 3.49 µM
